Reference: patent US20030130308A1, “Drugs for spinal anesthesia” (priority 2001, published 2003)
“Also recorded” adds a separate entry of the source. Structures can show the parent of a compound that is named as a salt.

What was measured:
Type in all cases: in vivo
rats [1] = assay: Mean arterial pressure and heart rate via carotid artery catheter after intrathecal injection; details: rat
Experimental: (§1) Rats were tested before 15 minutes through 240 minutes after intrathecal injection of 5 nmoles (in 10 μl) of 6-[2-(1(2)H-tetrazole-5-yl)ethyl]decahydroisoquinolone-3-carboxylic acid. Sensory function was tested at the hindpaw using withdrawal response to pinprick and withdrawal to pinch with a sharp forceps. Motor performance (ambulation, the placing reflex and Rotarod time), blood pressure and heart rate was also evaluated. Some tests were repeated the next day. Responses after 6-[2-(1(2)H-tetrazole-5-yl)ethyl]decahydroisoquinolone-3-carboxylic acid were compared to injection of 40 μl of bupivacaine, 0.75%. Pinprick responses at the forepaw, chest, abdomen, hindleg and hindpaw were also examined after intrathecal 6-[2-(1(2)H-tetrazole-5-yl)ethyl]decahydroisoquinolone-3-carboxylic acid.
For blood pressure measurement, the paratracheal region was shaved, prepared with povidone-iodine, and incised 1.5-2 cm longitudinally lateral to the midline. The carotid artery was isolated and cannulated with PE-50 tubing that had been stretched by exposing the distal end to heat. The catheter secured and tunneled subcutaneously to the posterior neck region. The skin was closed with 4-0 silk and the rat was allowed to recover for 2-3 days before experiments began.
The mean arterial pressure and heart rate were measured using the carotid artery catheter attached to a pressure transducer relayed to a polygraph and preamplifier (Grass, Quincy, Mass). Heart rate was intermittently measured by counting the arterial pulse wave for 30 seconds.
(§2) The dose and volume of drugs injected intrathecally were determined from the dose required to produce hindlimb sensory and motor loss in preliminary experiments. Bupivacaine HCl (0.75% in 8.25% dextrose for spinal injection) was purchased from Abbott Laboratories (Chicago, Ill.). The intrathecal injection volume was 40 μl. The compound was dissolved in 10% dextrose and water. The injection volume was 1 ul. All intrathecal drug injections were followed by a flush of 10 μl preservative-free saline.

rats [2] = assay: Withdrawal response to pinch with forceps at the hindpaw after intrathecal injection; details: rat
Experimental: as §1
(§3) Rats were anesthetized with halothane. The lumbar region was shaved, prepared with povidone-iodine, made kyphotic and incised 2 to 3 cm longitudinally in the midline at the level of the iliac crests. The space between the 5th and 6th lumbar vertebrae was punctured with 23G hypodermic needle and a 32G PU catheter (10 cm length, OD 0.0107 inches and ID 0.005 inches) reinforced with a Teflon coated stainless steel stylet (0.003 inches) was advanced through the needle cranially. The needle and the stylet were removed and the catheter withdrawn so that 6.5-7 cm extended outside of the lumbar masculature. The catheter was fixed to the fascia, sutured, inserted into an 8 cm length of PE-10 tubing and secured with glue covered with epoxy. The catheter was tunneled under the skin to the cervical region, flushed with saline and sealed with a cautery pen. The dead space of the catheter was 4.5 to 5 μl. The skin was closed and the rat was allowed to recover from anesthesia for 2-3 days.
(§4) First, the withdrawal response to pinprick was tested on each hindpaw. A 5 mm long tip of a safety pin attached to a von Frey filament (520 mN) was applied once to the plantar aspect of each hindpaw. Either a withdrawal response or a reaction occurred (1=positive response) or no withdrawal (0=no response). The sum of the scores (0, 1 or 2) for each rat was recorded. If no response or reaction was elicited by pinprick, a serrated dissecting forceps was used to pinch the skin of the plantar region for 2-3 sec. Again, withdrawal or reaction was considered a positive response (score=1) and the absence of both a negative test (score=0). […] Because the response to pinch was quite vigorous and rats were subjected to repeated tests in a single day, only rats unresponsive to pinprick were tested for pinch. If pinprick evoked a response, pinch was designated as positive also. The sum of the scores after pinch (0, 1 or 2) was recorded.
as §2

rats [3] = assay: Rotarod performance after intrathecal injection; details: rat; for Rotarod Time: mean ± SD
Experimental: as §1, §3
Rats were trained over a two-day period. Training began by placing the rat on a Rotarod (Stoelting, Wood Dale, Ill.) that was fixed for three minutes. Then, three series of trials separated by 2-3 hours were performed. During each trial, the rat was placed on the Rotarod accelerating for the first 20 s then at a constant rate of approximately 5 rpm, until a 180 s cut off time. If the rat fell at any time during the initial trial, the trial was repeated. Each rat was allowed three attempts per trial. On the second day, the same procedure was repeated, though acceleration was sustained for 120 s to approximately 12 rpm, with a 150 second cut off time. On day 3, the test day, rats are again placed on the Rotarod and accelerated for 120 seconds to 12 rpm with the cutoff time of 150 seconds. Each rat was permitted 4 attempts at 15 minute intervals. Those successful in 2 of the 4 attempts continued in the protocol, and the average of the 4 attempts was considered the baseline (pre). […] Then the placing reflex was tested. Rats were placed on a table and the dorsum of either hindpaw was drawn across the edge of the table; this elicits a lifting of the paw onto the surface of the table (2=normal; 1=delay of 1-2 sec.; 0=more than 2 sec.). This test was performed 3 times for each hindlimb after each ambulation test. The sum of the three trials on both paws were recorded (1-12).
as §2

rats [4] = assay: Overall sensory and motor blockade of the hindlimbs after intrathecal injection; details: rat
Experimental: as §1, §3, §2

rats [5] = assay: Withdrawal response to pinprick at the hindpaw after intrathecal injection; details: rat
Experimental: as §1, §3, §4, §2

[6] = bupivacaine 0.75% 40 μl intrathecal
[7] = bupivacaine 0.75% 40 μl intrathecal, fifteen minutes after administration
[8] = 5 nmoles intrathecal vs bupivacaine
[9] = 5 nmoles intrathecal, from 15 minutes

CCCCN1CCCCC1C(=O)Nc1c(C)cccc1C (stereo not shown) [Bupivacaine, Bupivacaine HCl]
time by which blood pressure and heart rate changes resolved (rats [1]; [6]): ≤ 30 min
heart rate change vs Pre (rats [1]; [7]): increased
mean arterial pressure change vs Pre (rats [1]; [7]): decreased
time of full recovery of response to pinch (rats [2]; [6]): 30 min
response to pinch vs Pre (rats [2]; bupivacaine 0.75% 40 μl intrathecal, 15 minutes after injection): reduced
Rotarod Time (rats [3]; Bupivacaine 0.75% 40 μl IT, n=8, 15 min): 5 ± 6 s
Rotarod Time (rats [3]; Bupivacaine 0.75% 40 μl IT, n=8, 30 min): 49 ± 42 s
Rotarod Time (rats [3]; Bupivacaine 0.75% 40 μl IT, n=8, 60 min): 135 ± 43 s
Rotarod Time (rats [3]; Bupivacaine 0.75% 40 μl IT, n=8, 90 min): 136 ± 39 s
Rotarod Time (rats [3]; Bupivacaine 0.75% 40 μl IT, n=8, 120 min): 137 ± 26 s
Rotarod Time (rats [3]; Bupivacaine 0.75% 40 μl IT, n=8, 180 min): 142 ± 15 s
Rotarod Time (rats [3]; Bupivacaine 0.75% 40 μl IT, n=8, 240 min): 149 ± 2 s
Rotarod Time (rats [3]; Bupivacaine 0.75% 40 μl IT, n=8, 24 hrs): 150 ± 0 s
Rotarod Time (rats [3]; Bupivacaine 0.75% 40 μl IT, n=8, Pre (before drug injection)): 146 ± 8 s
rotorod performance decreased for (P<0.05 vs Pre) (rats [3]; [6]): 30 min
sensory and motor responses (rats [4]; [6]): decreased
time at which all rats had recovered withdrawal to pinprick (rats [5]; [6]): 60 min
withdrawal to pinprick vs Pre (rats [5]; bupivacaine 0.75% 40 μl intrathecal, 15 minutes after injection, not eliminated in all tests): reduced

O=C(O)C1CC2CC(CCc3nnn[nH]3)CCC2CN1 (stereo not shown) [LY293558, 6-[2-(1(2)H-tetrazole-5-yl)ethyl]decahydroisoquinolone-3-carboxylic acid]
change in blood pressure (rats [1]; 5 nmoles intrathecal): No change; also recorded: did not change
change in heart rate (rats [1]; 5 nmoles intrathecal): No change; also recorded: did not change
greater inhibition of pinch than bupivacaine (P<0.05) through (rats [2]; [8]): 4 h
all rats failed to respond to pinch through (P<0.05 vs Pre) (rats [2]; [9]): 90 min
recovery of pinch response the next day (rats [2]; 5 nmoles intrathecal, next day): recovered fully
Rotorod performance decreased through (P<0.05 vs Pre) (rats [3]; 5 nmoles intrathecal): 4 h
recovery of Rotorod performance the next day (rats [3]; 5 nmoles intrathecal, next day): full recovery
Rotarod Time (rats [3]; LY293558 5 nmoles IT, n=8, 15 min): 3 ± 4 s
Rotarod Time (rats [3]; LY293558 5 nmoles IT, n=8, 240 min): 115 ± 42 s
Rotarod Time (rats [3]; LY293558 5 nmoles IT, n=8, 24 hrs): 149 ± 5 s
Rotarod Time (rats [3]; LY293558 5 nmoles IT, n=8, Pre (before drug injection)): 144 ± 10 s
effects compared with bupivacaine (rats [4]; 5 nmoles intrathecal vs bupivacaine 0.75% 40 μl): more pronounced and sustained than bupivacaine; also recorded: more pronounced and prolonged
greater motor deficits than bupivacaine (P<0.05) in all tests of motor function, through (rats [4]; 5 nmoles intrathecal vs bupivacaine, from 30 minutes): 3 h
sensory and motor blockade of the hindlimbs (rats [4]; 5 nmoles intrathecal): reversible, sustained sensory and motor blockade
sensory and motor responses blocked through (rats [4]; 5 nmoles intrathecal): 180 min
recovery of sensory and motor responses the following day (rats [4]; 5 nmoles intrathecal, following day): complete recovery
greater inhibition of pinprick than bupivacaine (P<0.05) through (rats [5]; [8]): 3 h
rats failed to respond to pin prick through (P<0.05 vs Pre) (rats [5]; [9]): 2 h
recovery of pinprick response the next day (rats [5]; 5 nmoles intrathecal, next day): recovered fully
